These results are taken from patent US20100152235A1, “OXADIAZOLE DERIVATIVES ACTIVE ON SPHINGOSINE-1-PHOSPHATE (S1P)” (priority 2007, published 2010).

In data set [1] the target is T1, human S1P1 receptor (Homo sapiens, UniProt P21453).
T1 construct: expressed in transfected cells; membranes
Kind of data set: S1P1 GTPγS assay. The class given is biochemical. The note with it: [35S]-GTPγS SPA, membranes of rat hepatoma cells expressing human S1P1, agonist. As for the experimental part: (§1) For membrane preparations all steps were performed at 4° C. Rat hepatoma cells stably expressing the human S1P1 receptor or Rat Basophilic Leukaemia cells (RBL) stably expressing human S1P3 receptor were grown to 80% confluency before being harvested into 10 ml Phospho-Buffered Saline (PBS) and centrifuged at 1200 rpm for 5 minutes. After removal of the supernatant, the pellet was re-suspended and cells were homogenised within a glass Waring blender for 2 bursts of 15 secs in 200 mls of buffer (50 mM HEPES, 1 mM leupeptin, 25 μg/ml bacitracin, 1 mM EDTA, 1 mM PMSF, 2 μM pepstatin A). The blender was plunged into ice for 5 mins after the first burst and 10-40 mins after the final burst to allow foam to dissipate. The material was then spun at 500 g for 20 mins and the supernatant spun for 36 mins at 48,000 g. The pellet was resuspended in the same buffer as above but without PMSF and pepstatin A. The material was then forced through a 0.6 mm needle, made up to the required volume, (usually ×4 the volume of the original cell pellet), aliquoted and stored frozen at −80° C.
as §1, with “All” for “For membrane preparations all”, “Cells” for “Rat hepatoma cells stably expressing the human S1P1 receptor or Rat Basophilic Leukaemia cells (RBL) stably expressing human S1P3 receptor were grown to 80% confluency before being harvested into 10 ml Phospho-Buffered Saline (PBS) and centrifuged at 1200 rpm for 5 minutes. After removal of the supernatant, the pellet was re-suspended and cells”
Human S1P1 rat hepatoma membranes (1.5 μg/well) were adhered to a wheatgerm agglutinin (WGA)-coated scintillation proximity assay (SPA) beads (0.125 mg/well) in assay buffer (HEPES 20 mM, MgCl2 10 mM, NaCl 100 mM and pH adjusted to 7.4 using KOH 5 M, GDP 10 μM FAC (final assay concentration) and saponin 90 μg/ml FAC was also added).
After 30 minutes pre-coupling on ice the bead and membrane suspension was dispensed into a white Greiner polypropylene LV384-well plate ([…]), containing 0.1 μl of the compound. […] [^35S]-GTPγS (0.5 nM final radioligand conc) made up in assay buffer was then added to agonist plates. The final assay cocktail (10.1 μl) was then centrifuged at 1000 rpm for 5 minutes then read immediately on a Viewlux reader.
All test compounds were dissolved in DMSO at a concentration of 10 mM and were prepared in 100% DMSO using a 1 in 4 dilution step to provide 11 point dose response curves. The dilutions were transferred to the assay plates ensuring that the DMSO concentration was constant across the plate for all assays.
All data was normalized to the mean of 16 high and 16 low control wells on each plate. A four parameter curve fit was then applied.
S1P1 expressing RH7777 membranes (1.5 μg/well) […] were homogenised by passing through a 23G needle. These were then adhered to WGA-coated SPA beads (0.125 mg/well) in assay buffer (HEPES 20 mM, MgCl2 10 mM, NaCl 100 mM and pH adjusted to 7.4 using KOH 5M). GDP […] FAC and saponin 90 μg/ml FAC were also added.
After 30 minutes precoupling on ice, the bead and membrane suspension was dispensed into white Greiner polypropylene LV 384-well plates (5 μl/well), containing 0.1 μl of compound. 5 μl/well [^35S]-GTPγS (0.5 nM for S1P1 or 0.3 nM for S1P3 final radioligand concentration) made in assay buffer was then added to the plates. The final assay cocktail (10.1 μl) was then sealed, spun on a centrifuge, then read immediately on a Viewlux instrument.
(In general: GTPγS resists hydrolysis and so accumulates on activated G proteins.)

The test system of data set [2] is circulating lymphocytes. The note with it: animals and man, literature; cited from earlier work.
For data set [3] the following is noted: clinical studies, first 24 hours of treatment, literature; cited from earlier work.

Molecules are shown by their SMILES. Counter-ions that a name gives are not always drawn. A value given as a limit tells only on which side of the number the result lay.

T1 sequence (P21453 whole entry): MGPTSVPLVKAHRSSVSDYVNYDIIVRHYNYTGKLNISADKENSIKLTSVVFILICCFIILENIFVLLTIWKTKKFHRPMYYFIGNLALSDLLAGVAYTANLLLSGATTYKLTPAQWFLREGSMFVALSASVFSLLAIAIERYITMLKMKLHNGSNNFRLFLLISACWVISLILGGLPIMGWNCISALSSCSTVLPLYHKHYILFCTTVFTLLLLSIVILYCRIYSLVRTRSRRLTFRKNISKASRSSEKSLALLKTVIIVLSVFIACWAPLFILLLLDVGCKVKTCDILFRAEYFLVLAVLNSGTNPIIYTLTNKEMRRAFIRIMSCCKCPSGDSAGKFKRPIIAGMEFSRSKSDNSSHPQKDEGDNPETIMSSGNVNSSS

Molecule `CC(C)Oc1ccc(-c2nc(-c3cccc4c3CCN(CC(=O)O)C4)no2)cc1C#N` [Example 4, [5-(5-{3-cyano-4-[(1-methylethyl)oxy]phenyl}-1,2,4-oxadiazol-3-yl)-3,4-dihydro-2(1H)-isoquinolinyl]acetic acid hydrochloride] showed an EC50 in data set [1] of less than 10 nM.

`CC(C)Oc1ccc(-c2nc(-c3cccc4c3CCN(CCCC(=O)O)C4)no2)cc1C#N` [Example 6, 4-[5-(5-{3-cyano-4-[(1-methylethyl)oxy]phenyl}-1,2,4-oxadiazol-3-yl)-3,4-dihydro-2(1H)-isoquinolinyl]butanoic acid hydrochloride] gave an EC50 in data set [1] of less than 10 nM.

Molecule `Cc1c(-c2noc(-c3ccc(OC(C)C)c(C#N)c3)n2)ccc2c1CCNC2` [Example 11, 2-[(1-Methylethyl)oxy]-5-[3-(5-methyl-1,2,3,4-tetrahydro-6-isoquinolinyl)-1,2,4-oxadiazol-5-yl]benzonitrile trifluoroacetic acid salt] had an EC50 in data set [1] of less than 100 nM.

For `Cc1c(-c2noc(-c3ccc(OC(C)C)c(Cl)c3)n2)ccc2c1CCN(CC(=O)O)C2` [Example 9, [6-(5-{3-Chloro-4-[(1-methylethyl)oxy]phenyl}-1,2,4-oxadiazol-3-yl)-5-methyl-3,4-dihydro-2(1H)-isoquinolinyl]acetic acid], the EC50 in data set [1] was less than 100 nM.

`CC(C)Oc1ccc(-c2nc(-c3cccc4c3CCNC4)no2)cc1C#N` [Example 2, 2-[(1-methylethyl)oxy]-5-[3-(1,2,3,4-tetrahydro-5-isoquinolinyl)-1,2,4-oxadiazol-5-yl]benzonitrile hydrochloride] gave an EC50 in data set [1] of less than 10 nM.

Regarding `Cc1c(-c2noc(-c3ccc(OC(C)C)c(C#N)c3)n2)ccc2c1CCN(CC(=O)O)C2` [Example 12, [6-(5-{3-Cyano-4-[(1-methylethyl)oxy]phenyl}-1,2,4-oxadiazol-3-yl)-5-methyl-3,4-dihydro-2(1H)-isoquinolinyl]acetic acid], the half-maximal effective concentration (EC50) in data set [1] was less than 100 nM.

Consider `Cc1c(-c2noc(-c3ccc(OC(C)C)c(C#N)c3)n2)ccc2c1CCN(CCC(=O)O)C2` [Example 13, 3-[6-(5-{3-Cyano-4-[(1-methylethyl)oxy]phenyl}-1,2,4-oxadiazol-3-yl)-5-methyl-3,4-dihydro-2(1H)-isoquinolinyl]propanoic acid sodium salt], for which the 50% effective concentration (EC50) in data set [1] was less than 100 nM.

For the molecule `CCCCCCCCc1ccc(CCC(N)(CO)CO)cc1` [FTY720], the “effect on circulating lymphocytes” value in data set [2] was “reduce circulating lymphocytes in animals and man”. For the same molecule, in data set [3], the bradycardia entry is given as “results in bradycardia in the first 24 hours of treatment”.

With `CC(C)Oc1ccc(-c2nc(-c3cccc4c3CCNC4)no2)cc1C#N` [Example 3, 2-[(1-methylethyl)oxy]-5-[3-(1,2,3,4-tetrahydro-5-isoquinolinyl)-1,2,4-oxadiazol-5-yl]benzonitrile], in data set [1], the EC50 was less than 100 nM.

In data set [1], `Cc1c(-c2noc(-c3ccc(OC(C)C)c(Cl)c3)n2)ccc2c1CCN(CCC(=O)O)C2` [Example 8, 3-[6-(5-{3-Chloro-4-[(1-methylethyl)oxy]phenyl}-1,2,4-oxadiazol-3-yl)-5-methyl-3,4-dihydro-2(1H)-isoquinolinyl]propanoic acid] showed an EC50 of less than 10 nM.

Consider `CC(C)Oc1ccc(-c2nc(-c3cccc4c3CCN(C)C4)no2)cc1C#N` [Example 7, 2-[(1-methylethyl)oxy]-5-[3-(2-methyl-1,2,3,4-tetrahydro-5-isoquinolinyl)-1,2,4-oxadiazol-5-yl]benzonitrile], for which the EC50 in data set [1] is less than 100 nM.

`CC(C)Oc1ccc(-c2nc(-c3cccc4c3CCNC4)no2)cc1Cl` [Example 1, 5-(5-{3-chloro-4-[(1-methylethyl)oxy]phenyl}-1,2,4-oxadiazol-3-yl)-1,2,3,4-tetrahydroisoquinoline hydrochloride] showed a 50% effective concentration (EC50) in data set [1] of less than 100 nM.

In data set [1], `CC(C)Oc1ccc(-c2nc(-c3cccc4c3CCN(CCC(=O)O)C4)no2)cc1C#N` [Example 5, 3-[5-(5-{3-cyano-4-[(1-methylethyl)oxy]phenyl}-1,2,4-oxadiazol-3-yl)-3,4-dihydro-2(1H)-isoquinolinyl]propanoic acid hydrochloride] showed an EC50 of less than 100 nM.

As usually defined, the EC50 is the concentration at which the effect is half-maximal. A lower EC50 goes with greater potency.
